{"source": "patent US10946024B2", "about": "“Method for treating cancer” (Epizyme, Inc., priority 2014, dated 2021)", "key": {"[1]": {"test_system": "H3K27me3/total H3 in SW982 cells", "assay": "H3K27 methylation alterations by ELISA of extracted histones", "type": "cell-based, human", "settings": "SW982, 96 hours", "description": "(§1) HS-SY-II and SW982 cells were treated with either DMSO or Compound A starting at 40 nmol/L and decreasing in fourfold dilutions for 96 hours. Cells were washed by ice cold PBS, harvested by cell scraper, and lysed with 100 μl of nuclear extraction buffer (10 mM Tris-HCl, 10 mM MgCl2, 25 mM KCl, 1% Triton X-100, 8.6% Sucrose, plus 1× Halt Protease inhibitor cocktail (1861281, Thermo Scientific). Nuclei were collected by centrifugation at 600 g for 5 minutes at 4° C. and washed once with ice cold PBS. Supernatant was removed and histones extracted for one hour with 100 μL of 0.4 N cold sulfuric acid. Extracts were clarified by centrifugation at 10,000 g for 10 minutes at 4° C. and transferred to a fresh microcentrifuge tube containing 1 mL of ice cold acetone. Histones were precipitated at −20° C. for overnight, pelleted by centrifugation at 10,000 g for 10 minutes and resuspended in 100 μl of water. Histones were quantified using the BCA protein assay (23225, Pierce). […] Subsequently, the developed colors in the wells were measured using a plate spectrophotometer (SpectraMax 250, Molecular Devices) at 450 nm (reference wavelength 650 nm). The H3K27me3 levels were adjusted to total histone H3, and expressed as fold changes to DMSO control.\n(§2) The range of IC50 values (two independent experiments), shown in FIG. 6B, were determined by GraphPad Prism (GraphPad Software)."}, "[2]": {"test_system": "H3K27me3/total H3 in HS-SY-II cells", "assay": "H3K27 methylation alterations by ELISA of extracted histones", "type": "cell-based, human", "settings": "96 hours", "description": "as §1, §2"}, "[3]": {"test_system": "synovial sarcoma PDX (CTG-0771, CTG-0331)", "assay": "Tumor volume in mice bearing patient-derived xenografts (PDX) of synovial sarcoma, 35 days", "type": "in vivo", "settings": "oral 125, 250 or 500/400 mg/kg for 35 days", "description": "FIGS. 11A and 11C show mean in vivo tumor volumes for athymic nude mice bearing one of two different PDX of synovial sarcoma tumors. FIGS. 11B and 11D show percent survival for mice bearing a PDX. Mice were dosed with either vehicle (oral for 35 days), Compound A (oral: 125 mg/kg, 250 mg/kg, or 500/400 mg/kg for 35 days) or Doxorubicin (iv: 3 mg/kg, once a week for 3 weeks). FIGS. 11A and 11B show data from mice bearing PDX from high-grade spindle cell sarcoma. FIGS. 11C and 11D show data from mice bearing PDX.\nImmunocompromised female mice (Taconic; NCr nude) were implanted unilaterally in the flank region with tumor fragments (5 mm×5 mm×5 mm) harvested from donor animals, each implanted from a specific passage lot (CTG-0331 and CTG-0771 at P4). When tumors reached approximately 100-300 mm^3, animals were matched by tumor volume into treatment and control groups and dosing initiated. Vehicle (0.5% NaCMC plus 0.1% Tween 80 in water) or Compound A (500 mg/kg for CTG-0331 and 500 mg/kg decreased to 400 mg/kg on Day 17 for CTG-0771) was administered orally BID at a dose volume of 10 μL/g for 35 days. Tumor size was measured twice weekly. On Day 35, up to 5 mice with the largest tumor burden were euthanized for tumor collection 3 hours after final dose, and flash frozen. […]"}}, "data": [{"smiles": "CCN(c1cc(-c2ccc(CN3CCOCC3)cc2)cc(C(=O)NCc2c(C)cc(C)[nH]c2=O)c1C)C1CCOCC1", "note": "[Compound A]", "values": [{"measurement": "ratio of H3K27me3/total H3 (ratio to control)", "setting": "[1]", "value": "decreased ratios"}, {"measurement": "ratio of H3K27me3/total H3 (ratio to control)", "setting": "[2]", "value": "decreased ratios"}, {"measurement": "tumor volume", "setting": "[3]", "value": "dose-related tumor volume decrease"}]}]}
